The test system of data set [1] is HeLa cells. Description: Cell viability MTT assay, HeLa. Format: cell-based. To be noted: DOX 12.5 μg/mL. On the procedure:
HeLa and MCF-7 cells are plated in a 96-well plate (1×10^4 cells/well) using DMEM medium supplemented with 10% fetal bovine serum, 1% L-glutamine, antibiotics penicillin (100 IU/mL), and streptomycin (100 μg/mL) and incubation for 24 h. […] Then 3-(4,5-dimethylthiazol-2-yl)-2,5-diphenyl tetrazoliumbromide (MTT) solution in PBS (10 μL, 5 mg/mL) are added and incubated for another 4 h. The medium is aspirated, the MTT-formazan generated by live cells is dissolved in 150 μL of DMSO, and the absorbance at a wavelength of 490 nm of each well is measured using a microplate reader. The relative cell viability (%) is determined by comparing the absorbance at 490 nm with control wells containing only cell culture medium. Data are presented as average±SD (n=4).

The test system of data set [2] is HeLa cells. Description: Cellular uptake and intracellular release of DOX (CLSM). To be noted: DOX 12.5 μg/mL. The format is cell-based. As to the method:
HeLa cells are plated on microscope slides in a 24-well plate (5×10^4 cells/well) under 5% CO2 atmosphere at 37° C. using Dulbecco's modified Eagle's medium (DMEM) supplemented with 10% fetal bovine serum, 1% L-glutamine, antibiotics penicillin (100 IU/mL), and streptomycin (100 μg/mL). […] After incubation at 37° C. and a humidified 5% CO2-containing atmosphere for 0.5, 2 or 4 h, the culture media are removed and the cells on microscope plates are washed three times with PBS. The cells are then fixed with 4% formaldehyde for 15 min and washed with PBS 3 times. The cell nuclei are stained with 4′,6-diamidino-2-phenylindole (DAPI, blue) for 15 min and washed with PBS 3 times.

Take `COc1cccc2c1C(=O)c1c(O)c3c(c(O)c1C2=O)C[C@@](O)(C(=O)CO)C[C@@H]3O[C@H]1C[C@H](N)[C@H](O)[C@H](C)O1` [free DOX, doxorubicin]: the cell viability in the data set on HeLa cells [1] (24 h) is listed as 31.8%; in the data set on HeLa cells [1] (48 h), 19.1%. Moreover, the “intracellular distribution of DOX” value in the data set with HeLa cells [2] is “mainly accumulated in cell nucleus”.

The values are drawn from patent publication US9951183B2, “Amphiphilic blockcopolymers comprising reduction sensitive biodegradable polyesteramides” (DSM IP Assets B.V., priority 2014, dated 2018).
